# Target: T1, Gi-DREADD (hM4Di) on TRPV1+ neurons (Homo sapiens, UniProt P08173, A203G/Y113C)
# T1 construct: expressed in transfected cells; host or cells: TRPV1+ neurons of TRPV1Cre/Gi-DREADD transgenic mice (TRPV1Cre x R26-LSL-Gi-DREADD), in vivo
# T1 sequence (P08173 1-479 Y113C/A203G): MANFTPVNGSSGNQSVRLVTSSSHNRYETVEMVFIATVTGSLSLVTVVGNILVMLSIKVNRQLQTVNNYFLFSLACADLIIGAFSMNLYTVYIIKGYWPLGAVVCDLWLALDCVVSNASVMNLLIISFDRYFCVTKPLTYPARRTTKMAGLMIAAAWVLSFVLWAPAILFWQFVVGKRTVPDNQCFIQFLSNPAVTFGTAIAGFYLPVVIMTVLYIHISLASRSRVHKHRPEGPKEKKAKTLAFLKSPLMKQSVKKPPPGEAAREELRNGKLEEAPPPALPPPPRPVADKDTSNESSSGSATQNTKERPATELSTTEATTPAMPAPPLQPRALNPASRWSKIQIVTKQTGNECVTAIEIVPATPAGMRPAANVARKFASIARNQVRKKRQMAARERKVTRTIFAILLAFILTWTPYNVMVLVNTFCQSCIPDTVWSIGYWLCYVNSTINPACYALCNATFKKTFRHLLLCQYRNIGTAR
# Assay: Chemogenetic silencing of TRPV1+ neurons before intratracheal NP27-OVA immunization; NP-specific antibody titer by ELISA
# Format: in vivo
# Settings: TRPV1-Gi-DREADD mice; CNO intraperitoneally 30 minutes prior to intratracheal immunization with NP27-OVA; D14 post-immunization; n=11; p=0.0017 vs vehicle
# Method: FIG. 1. Silencing of sensory nerves at the time of primary immunization impacts antigen specific antibody responses. TRPV1^Cre/Gi-DREADD mice were administered with vehicle (DMSO) or CNO 30 min prior to immunization. Titer of NP-specific antibodies were monitored using ELISA.
# Using an intra-tracheal instillation technique, specific antigens were delivered in the lung. Tracheal instillations are preferred methodology, over inhalation protocols that may primarily target the upper respiratory tract. This allows for making subsequent physiological measurements on test animals, or reinstallation using the same animal. Also, the dose of the inoculum introduced into the lungs can be carefully determined and more accurately delivered to ensure animal recovery. […] TRPV1+ neurons were selectively silenced at the time of immunization using a chemogenetic mouse model. The Gi-DREADD, also known as human muscarinic receptor 4 (hM4Di), is a mutated muscarinic acetylcholine receptor that, when activated by its ligand, CNO, initiates the inhibitory G-protein signaling cascade that inhibits neuronal signaling and/or excitability. TRPV1Cre/Gi-DREADD mice that express Gi-DREADD on TRPV1+ neurons were generated by crossing TRPV1Cre mice with R26-LSLGi-DREADD mice controls. […] Antibody levels were assessed over time. […]
smiles,measurement,value
"C[N+]1([O-])CCN(C2=Nc3cc(Cl)ccc3Nc3ccccc32)CC1 [CNO, clozapine-N-oxide]","Anti-NP IgG1, Mean±SEM","42,525+14,641 U/mL"

# — patent US20240197867A1, “NEURAL CONTROL OF ADAPTIVE IMMUNITY” (The Feinstein Institutes for Medical Research, priority 2021, published 2024)
